Data from patent publication US20260083698A1, “Synergistic Stimulation of Mucociliary Clearance to Treat Mucus Obstruction in Cystic Fibrosis and Other Muco-Obstructive Disorders” (The Board of Trustees of the Leland Stanford Junior …, priority 2022, published 2026).

What was measured:
[1] = system: WT ferret tracheas; settings: WT ferrets, obtained previously (16); cited from earlier work
[2] = system: human nasal mucosa; assay: Ciliary beat frequency (CBF) measurement; settings: 37° C.; for CBF: human nasal mucosa, KRB, 0.3 μM carbachol, 10 μM forskolin
Description: Ciliary beat frequency was measured in human nasal mucosa from 4 subjects. CBF (in Hz) of unstimulated tissues at 37° C. in Krebs buffer (KRB) was 10.46±0.95. […] (Note that in this experiment any effects on ASL by the agonists were diluted because the ciliated tissue was studied while submerged in Krebs solution.) […] It was tested to see if CBF might display synergistic increases to the combined agonists. CBF (in Hz) of unstimulated human nasal cells in KRB (Krebs buffer solution) was 6.79±1.69 at 25° C. and 10.46±0.95 at 37° C. (4 subjects, P=0.01) (see “Methods” section). […] Thus, while increases in CBF will contribute to increases in MCCV, they are unlikely to account for the synergistic increase in MCCV seen with the combined agonists (see “Discussion” section). Human tissues. Human nasal mucosal tissues were obtained from nasal biopsies during endoscopic sinus surgeries at Yonsei University Hospital. All methods using human tissues were carried out in accordance with relevant guidelines and regulations of Yonsei University, Seoul, South Korea. All experimental protocols were approved by Yonsei University and informed consent was obtained from all participants prior to the study (Yonsei University-IRB protocol#: 4-2016-1153). Ciliary beat frequency measurement. Ciliary beat frequency was measured using human nasal mucosa in the lab where ferret and pig tracheal mucosa was not readily accessible. Human nasal mucosa from endoscopic nasal biopsies was further dissected under a microscope and placed in a chamber controlled for temperature and pH control. Perfused Krebs bicarbonate buffer was maintained at 37° C. and pH 7.4. Cilia were visualized with a Zeiss microscope equipped with 40× or 60× objectives (Munich, Germany) using differential interference contrast (DIC) optics. […] Images were obtained for 10 s at each condition and experiments were performed in the following sequence: (1) unstimulated CBF at room temperature; (2) unstimulated at 37° C.; (3) CBF at 37° C. with 0.3 μM carbachol; (4) wash for 10 min; […] Each condition was maintained for at least 10 min. […] All recordings at each condition were made at three different areas of the epithelia, and the analyzed CBF was averaged for each experiment. To analyze captured images and calculate CBF, an in-house coding with a MATLAB software (MA, USA) was used.

[3] = system: CF ferret tracheas; assay: Mucociliary clearance velocity (MCCV) in ex vivo CF ferret tracheas; settings: for MCCV: 10 μM forskolin, 0.3 μM carbachol, average of last 20 min of single drug period, 10 to 80 min after adding the combined agonists; for CF ferret MCCV response compared to WT ferrets: CF vs WT ferret (WT from ref 16)
Description: Synergistic increases of MCCV in CF ferrets and WT pigs. […] To determine if synergistic increases of MCCV could be produced in CF ferret tracheas, tracheas from 7 transgenic adult CF ferrets of mixed genotype were tested (see “Methods” section). […] SR, synergy response by the combined agonists: 19.95±4.12, (P=0.006 SR vs. Sum). Airway tissue procurement. CF ferret tissues. […] These ferrets were raised on the CFTR modulator VX770. […] Two […]/KO ferret tracheas were used for the tracheal, single gland mucus secretion rate assay. […] All isolated CF ferret tracheal trims (2-3 cm in length) were placed in DMEM culture medium immediately after euthanasia and shipped from the University of Iowa via overnight priority express. MCCV measurement. Details are in the previous reports (16,59,60). Briefly, each whole length ferret or piglet trachea, or a CF tracheal trim, was cut open along the mid-dorsal line and mounted mucosal side up onto a Sylgard elastomer platform. For pig experiments, tracheas from newborn piglets were used because tracheas from adult pigs that had been subjected to acute experiments, our source for submucosal gland experiment, had erratic MCC velocities due to epithelial damage secondary to intubation. […] Drugs were added by bath replacement with pre-warmed bath+drug(s).

[4] = system: pig tracheal mucosa; assay: Short circuit current (Isc) and conductance, Ussing chamber, pig; settings: WT pigs; 30 min single agonist then 30 min combined
From the text: FIG. 4. Combined agonists inhibit sodium absorption and stimulate anion secretion by surface epithelia. (A) Cartoon of two electrogenic, ion transport pathways across airway apical epithelium: anion secretion increases surface fluid, Na+ absorption decreases surface fluid. The two pathways have opposite effects on fluid depth, but additive effects on short circuit current (Isc) because of their opposite valence and transport directions. (B) Raw trace of Isc across pig tracheal epithelium using Chart 4 software. After reaching a stable, unstimulated Isc (here, >2 h post-mounting), 10 μM forskolin, 0.3 μM carbachol, 10 μM benzamil, 20 μM benzopyrimido-pyrrolo-oxazinedione (BPO-27) and 200 μM niflumic acid were sequentially added at times shown. (C, D) Pig tracheal mucosa: averaged Δ Isc plots over time in response to (C) forskolin alone followed by forskolin+carbachol and (D) reversed order of agonist addition. (E & F) Ferret tracheal mucosa: averaged A Isc plots with same protocol as for pigs. Pig traces (C, D) are based on 10-12 experiments with tissues from 6 to 7 pigs. Ferret traces (E, F) are from 7 experiments with tissues from 5 ferrets.
Combined agonists stimulate epithelial surface anion secretion and inhibit Na^+ absorption. The surface epithelia also modify ASL. FIG. 4A is a cartoon of the main ion flows controlling ASL depth: anion-mediated fluid secretion increases, and Na^+-mediated fluid absorption decreases ASL depth. It was hypothesized that the combined agonists increase ASL depth and thus MCCV by stimulating secretion and inhibiting absorption (see also FIG. 6). […] With no counterbalancing absorption ASL depth is predicted to increase (dotted gold line in FIG. 6A) unless MCCV increases.
Inhibiting Na+ absorption would increase net fluid accumulation on the surface. […]
Electrophysiology. […] Total tissue conductance was calculated by applying Ohm's law to the Isc deflection resulting from a 1 mV pulse across the tissues every 20 s during the experiment. […]

| SMILES | MCCV [1] | increase in CBF vs unstimulated [2] | CBF [2] | MCCV ([3]; CF ferret tracheas) | effect on MCCV ([3]; CF ferret tracheas, single agonist, 30 min) | CF ferret MCCV response compared to WT ferrets [3] | averaged MCCV of T10-30 to 0.3 μM carbachol in ferret (E) relative to ferrets (A) and (C) ([3]; individual CF ferrets, FIG. 7) | ΔIsc, summary plots [4] |
| --- | --- | --- | --- | --- | --- | --- | --- | --- |
| C[N+](C)(C)CCOC(N)=O [carbachol] | 8.24±0.82 mm/min | 5.3% | 11.04±1.3 Hz | 3.29±2.08 mm/min | only a small increase | ~40% | less than 5% | decreased directly or after a transient increase |
| C=C[C@@]1(C)CC(=O)[C@]2(O)[C@@]3(C)[C@@H](O)CCC(C)(C)[C@@H]3[C@H](O)[C@H](OC(C)=O)[C@@]2(C)O1 [forskolin] | – | 9.8% | 12.06±1.22 Hz | 0.18±0.09 mm/min | – | ~0% | – | – |
